Test results from PubChem BioAssay AID1982 (Sanford-Burnham Center for Chemical Genomics, 2009).
Calls of active or inactive are those of the source. The rule behind the calls is not given here.

Assays:
Test in all cases: kinase panel binding selectivity, selectivity assay, biochemical, KINOMEscan (AID 1982)
[1] = molecular target: MAP kinase-interacting serine/threonine-protein kinase 2 (Homo sapiens) (UniProt Q9HBH9); details: KINOMEscan 353-kinase binding panel, qPCR; MKNK2; at 10 µM; active compounds read low
[2] = molecular target: Serine/threonine-protein kinase PAK 1 (Homo sapiens) (UniProt Q13153); details: KINOMEscan 353-kinase binding panel, qPCR; PAK1; at 10 µM; active compounds read low
[3] = molecular target: 3-phosphoinositide-dependent protein kinase 1 (Homo sapiens) (UniProt O15530); details: KINOMEscan 353-kinase binding panel, qPCR; PDPK1; at 10 µM; active compounds read low
[4] = molecular target: Receptor tyrosine-protein kinase erbB-4 (Homo sapiens) (UniProt Q15303); details: KINOMEscan 353-kinase binding panel, qPCR; ERBB4; at 10 µM; active compounds read low
[5] = molecular target: Macrophage colony-stimulating factor 1 receptor (Homo sapiens) (UniProt P07333); details: KINOMEscan 353-kinase binding panel, qPCR; CSF1R; at 10 µM; active compounds read low
EPHA1 = details: KINOMEscan 353-kinase binding panel, qPCR, at 10 µM, active compounds read low
[6] = molecular target: Cyclin-dependent kinase 5 (Homo sapiens) (UniProt Q00535); details: KINOMEscan 353-kinase binding panel, qPCR; CDK5; at 10 µM; active compounds read low
[7] = molecular target: Tyrosine-protein kinase JAK2 (Homo sapiens) (UniProt O60674); details: KINOMEscan 353-kinase binding panel, qPCR; JAK2(Kin.Dom.2); at 10 µM; active compounds read low
PIK3CG = details: KINOMEscan 353-kinase binding panel, qPCR, at 10 µM, active compounds read low
CSK = details: KINOMEscan 353-kinase binding panel, qPCR, at 10 µM, active compounds read low
RIOK2 = details: KINOMEscan 353-kinase binding panel, qPCR, at 10 µM, active compounds read low
[8] = molecular target: Receptor tyrosine-protein kinase erbB-2 (Homo sapiens) (UniProt P04626); details: KINOMEscan 353-kinase binding panel, qPCR; ERBB2; at 10 µM; active compounds read low
BIKE = details: KINOMEscan 353-kinase binding panel, qPCR, at 10 µM, active compounds read low
EPHB3 = details: KINOMEscan 353-kinase binding panel, qPCR, at 10 µM, active compounds read low
TTK = details: KINOMEscan 353-kinase binding panel, qPCR, at 10 µM, active compounds read low
[9] = molecular target: Glycogen synthase kinase-3 alpha (Homo sapiens) (UniProt P49840); details: KINOMEscan 353-kinase binding panel, qPCR; GSK3A; at 10 µM; active compounds read low
FGR = details: KINOMEscan 353-kinase binding panel, qPCR, at 10 µM, active compounds read low
ERK5 = details: KINOMEscan 353-kinase binding panel, qPCR, at 10 µM, active compounds read low
BMPR2 = details: KINOMEscan 353-kinase binding panel, qPCR, at 10 µM, active compounds read low
[10] = molecular target: Serine/threonine-protein kinase PLK1 (Homo sapiens) (UniProt P53350); details: KINOMEscan 353-kinase binding panel, qPCR, at 10 µM, active compounds read low
PRKR = details: KINOMEscan 353-kinase binding panel, qPCR, at 10 µM, active compounds read low
[11] = molecular target: RAC-beta serine/threonine-protein kinase (Homo sapiens) (UniProt P31751); details: KINOMEscan 353-kinase binding panel, qPCR; AKT2; at 10 µM; active compounds read low
[12] = molecular target: Leukocyte tyrosine kinase receptor (Homo sapiens) (UniProt P29376); details: KINOMEscan 353-kinase binding panel, qPCR; LTK; at 10 µM; active compounds read low
ACVR2B = details: KINOMEscan 353-kinase binding panel, qPCR, at 10 µM, active compounds read low
PCTK3 = details: KINOMEscan 353-kinase binding panel, qPCR, at 10 µM, active compounds read low
RIPK2 = details: KINOMEscan 353-kinase binding panel, qPCR, at 10 µM, active compounds read low
[13] = molecular target: Cyclin-dependent kinase 7 (Homo sapiens) (UniProt P50613); details: KINOMEscan 353-kinase binding panel, qPCR; CDK7; at 10 µM; active compounds read low
ULK2 = details: KINOMEscan 353-kinase binding panel, qPCR, at 10 µM, active compounds read low
[14] = molecular target: Serine/threonine-protein kinase TAO1 (Homo sapiens) (UniProt Q7L7X3); details: KINOMEscan 353-kinase binding panel, qPCR; TAOK1; at 10 µM; active compounds read low
CAMK4 = details: KINOMEscan 353-kinase binding panel, qPCR, at 10 µM, active compounds read low
ARK5 = details: KINOMEscan 353-kinase binding panel, qPCR, at 10 µM, active compounds read low
ACVR2A = details: KINOMEscan 353-kinase binding panel, qPCR, at 10 µM, active compounds read low
NEK7 = details: KINOMEscan 353-kinase binding panel, qPCR, at 10 µM, active compounds read low
[15] = molecular target: Mitogen-activated protein kinase 9 (Homo sapiens) (UniProt P45984); details: KINOMEscan 353-kinase binding panel, qPCR; JNK2; at 10 µM; active compounds read low
PIK3CB = details: KINOMEscan 353-kinase binding panel, qPCR, at 10 µM, active compounds read low
NDR2 = details: KINOMEscan 353-kinase binding panel, qPCR, at 10 µM, active compounds read low

Measured: percent of control binding

MAP kinase-interacting serine/threonine-protein kinase 2 (Homo sapiens), sequence (Q9HBH9 whole entry, looked up): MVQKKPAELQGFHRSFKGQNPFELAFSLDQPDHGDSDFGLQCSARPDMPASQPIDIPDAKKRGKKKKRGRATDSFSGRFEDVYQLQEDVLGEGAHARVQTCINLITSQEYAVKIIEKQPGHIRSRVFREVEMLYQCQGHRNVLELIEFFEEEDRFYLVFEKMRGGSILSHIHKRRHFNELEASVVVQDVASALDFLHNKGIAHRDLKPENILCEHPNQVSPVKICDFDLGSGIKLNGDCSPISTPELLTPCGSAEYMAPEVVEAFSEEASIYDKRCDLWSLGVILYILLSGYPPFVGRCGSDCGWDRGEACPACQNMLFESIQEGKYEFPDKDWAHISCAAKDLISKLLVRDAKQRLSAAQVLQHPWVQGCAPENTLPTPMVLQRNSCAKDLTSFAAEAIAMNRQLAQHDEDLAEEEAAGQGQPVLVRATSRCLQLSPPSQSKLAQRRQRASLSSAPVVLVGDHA
Leukocyte tyrosine kinase receptor (Homo sapiens), sequence (P29376 whole entry, looked up): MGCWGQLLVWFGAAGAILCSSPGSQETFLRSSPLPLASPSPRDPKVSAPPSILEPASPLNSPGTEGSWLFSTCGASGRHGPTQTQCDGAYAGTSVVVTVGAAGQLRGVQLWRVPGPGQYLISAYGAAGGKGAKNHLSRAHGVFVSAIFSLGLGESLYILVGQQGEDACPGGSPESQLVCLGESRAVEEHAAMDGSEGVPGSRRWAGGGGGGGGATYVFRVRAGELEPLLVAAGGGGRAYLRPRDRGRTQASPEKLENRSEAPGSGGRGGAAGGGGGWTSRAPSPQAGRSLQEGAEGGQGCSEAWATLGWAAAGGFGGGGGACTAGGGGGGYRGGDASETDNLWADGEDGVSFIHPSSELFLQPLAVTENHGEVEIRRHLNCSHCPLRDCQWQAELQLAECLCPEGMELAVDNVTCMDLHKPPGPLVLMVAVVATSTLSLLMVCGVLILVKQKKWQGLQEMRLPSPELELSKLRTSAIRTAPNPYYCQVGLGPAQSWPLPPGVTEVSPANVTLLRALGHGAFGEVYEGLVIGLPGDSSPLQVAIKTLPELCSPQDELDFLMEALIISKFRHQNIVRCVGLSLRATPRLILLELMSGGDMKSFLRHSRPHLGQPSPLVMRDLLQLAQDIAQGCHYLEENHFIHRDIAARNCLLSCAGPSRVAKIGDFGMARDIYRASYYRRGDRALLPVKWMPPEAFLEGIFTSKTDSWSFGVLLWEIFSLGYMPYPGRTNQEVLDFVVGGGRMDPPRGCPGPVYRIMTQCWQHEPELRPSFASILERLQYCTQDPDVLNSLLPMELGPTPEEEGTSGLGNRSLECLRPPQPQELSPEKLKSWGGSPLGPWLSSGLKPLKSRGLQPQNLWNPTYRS
Serine/threonine-protein kinase PLK1 (Homo sapiens), sequence (P53350 whole entry, looked up): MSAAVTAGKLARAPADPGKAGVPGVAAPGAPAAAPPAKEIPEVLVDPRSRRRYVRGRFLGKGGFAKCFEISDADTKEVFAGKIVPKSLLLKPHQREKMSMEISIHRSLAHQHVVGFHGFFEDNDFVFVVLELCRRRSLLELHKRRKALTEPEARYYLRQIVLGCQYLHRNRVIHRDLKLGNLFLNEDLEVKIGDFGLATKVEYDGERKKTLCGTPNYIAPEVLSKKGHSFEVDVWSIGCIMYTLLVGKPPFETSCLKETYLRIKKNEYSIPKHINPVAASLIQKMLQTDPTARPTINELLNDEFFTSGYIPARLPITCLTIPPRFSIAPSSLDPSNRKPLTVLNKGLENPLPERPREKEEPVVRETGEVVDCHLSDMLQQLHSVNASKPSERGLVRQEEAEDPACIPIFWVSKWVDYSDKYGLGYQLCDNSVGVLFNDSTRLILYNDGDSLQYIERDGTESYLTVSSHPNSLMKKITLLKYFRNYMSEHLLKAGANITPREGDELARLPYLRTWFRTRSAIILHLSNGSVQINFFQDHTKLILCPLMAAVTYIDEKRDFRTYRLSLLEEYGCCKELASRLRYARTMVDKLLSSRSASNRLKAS
RAC-beta serine/threonine-protein kinase (Homo sapiens), sequence (P31751 whole entry, looked up): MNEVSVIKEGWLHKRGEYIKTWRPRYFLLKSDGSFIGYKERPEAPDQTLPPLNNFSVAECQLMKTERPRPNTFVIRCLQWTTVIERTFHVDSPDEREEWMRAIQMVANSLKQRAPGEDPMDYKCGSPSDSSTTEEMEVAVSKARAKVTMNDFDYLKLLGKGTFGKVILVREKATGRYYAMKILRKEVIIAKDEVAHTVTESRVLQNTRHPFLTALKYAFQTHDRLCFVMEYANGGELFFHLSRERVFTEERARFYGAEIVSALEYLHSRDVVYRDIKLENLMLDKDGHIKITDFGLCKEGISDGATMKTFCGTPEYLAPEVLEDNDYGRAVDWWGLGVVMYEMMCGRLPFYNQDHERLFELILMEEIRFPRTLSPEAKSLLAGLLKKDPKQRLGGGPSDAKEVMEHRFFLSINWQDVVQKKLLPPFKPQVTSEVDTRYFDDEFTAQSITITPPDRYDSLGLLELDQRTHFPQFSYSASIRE
Glycogen synthase kinase-3 alpha (Homo sapiens), sequence (P49840 whole entry, looked up): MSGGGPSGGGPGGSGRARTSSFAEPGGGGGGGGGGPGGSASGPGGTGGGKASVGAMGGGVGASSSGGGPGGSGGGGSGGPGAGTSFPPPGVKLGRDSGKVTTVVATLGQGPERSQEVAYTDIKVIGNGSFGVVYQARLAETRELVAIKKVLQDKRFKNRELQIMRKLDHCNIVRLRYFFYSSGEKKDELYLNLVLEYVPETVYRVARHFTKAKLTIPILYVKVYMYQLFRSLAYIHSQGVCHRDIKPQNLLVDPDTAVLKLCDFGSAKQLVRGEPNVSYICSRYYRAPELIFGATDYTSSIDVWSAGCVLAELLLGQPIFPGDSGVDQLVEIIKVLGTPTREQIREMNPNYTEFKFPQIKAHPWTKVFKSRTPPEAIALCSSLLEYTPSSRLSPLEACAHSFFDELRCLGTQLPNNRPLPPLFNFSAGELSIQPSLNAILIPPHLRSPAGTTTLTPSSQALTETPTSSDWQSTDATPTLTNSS
Tyrosine-protein kinase JAK2 (Homo sapiens), sequence (O60674 whole entry, looked up): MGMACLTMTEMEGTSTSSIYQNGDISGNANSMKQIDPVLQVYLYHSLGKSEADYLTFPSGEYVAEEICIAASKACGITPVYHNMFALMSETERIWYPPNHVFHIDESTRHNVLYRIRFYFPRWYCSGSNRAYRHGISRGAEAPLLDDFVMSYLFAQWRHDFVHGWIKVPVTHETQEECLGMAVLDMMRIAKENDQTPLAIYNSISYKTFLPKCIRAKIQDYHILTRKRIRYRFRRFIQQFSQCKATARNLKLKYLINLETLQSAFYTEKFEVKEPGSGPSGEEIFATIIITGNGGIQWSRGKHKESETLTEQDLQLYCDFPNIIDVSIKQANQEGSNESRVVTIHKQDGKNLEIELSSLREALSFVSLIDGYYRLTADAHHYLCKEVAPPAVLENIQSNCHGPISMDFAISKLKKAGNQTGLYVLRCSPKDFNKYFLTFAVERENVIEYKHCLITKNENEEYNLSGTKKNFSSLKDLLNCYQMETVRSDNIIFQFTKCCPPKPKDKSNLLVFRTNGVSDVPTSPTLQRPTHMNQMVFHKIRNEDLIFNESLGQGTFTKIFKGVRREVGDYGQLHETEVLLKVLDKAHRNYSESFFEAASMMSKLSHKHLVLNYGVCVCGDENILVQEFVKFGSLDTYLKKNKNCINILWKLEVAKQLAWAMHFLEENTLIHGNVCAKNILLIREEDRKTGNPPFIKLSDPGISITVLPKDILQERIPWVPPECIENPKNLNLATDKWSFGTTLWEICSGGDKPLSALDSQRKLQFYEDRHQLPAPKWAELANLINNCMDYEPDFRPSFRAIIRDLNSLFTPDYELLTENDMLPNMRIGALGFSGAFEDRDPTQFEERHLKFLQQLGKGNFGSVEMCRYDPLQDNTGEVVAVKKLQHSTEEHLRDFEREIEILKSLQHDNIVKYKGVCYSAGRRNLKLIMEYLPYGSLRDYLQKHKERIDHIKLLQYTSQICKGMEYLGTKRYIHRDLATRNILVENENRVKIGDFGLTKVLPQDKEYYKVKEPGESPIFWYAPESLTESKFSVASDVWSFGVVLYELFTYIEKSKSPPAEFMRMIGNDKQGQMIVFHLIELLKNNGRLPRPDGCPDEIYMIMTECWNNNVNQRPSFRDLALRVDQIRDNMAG
Serine/threonine-protein kinase TAO1 (Homo sapiens), sequence (Q7L7X3 whole entry, looked up): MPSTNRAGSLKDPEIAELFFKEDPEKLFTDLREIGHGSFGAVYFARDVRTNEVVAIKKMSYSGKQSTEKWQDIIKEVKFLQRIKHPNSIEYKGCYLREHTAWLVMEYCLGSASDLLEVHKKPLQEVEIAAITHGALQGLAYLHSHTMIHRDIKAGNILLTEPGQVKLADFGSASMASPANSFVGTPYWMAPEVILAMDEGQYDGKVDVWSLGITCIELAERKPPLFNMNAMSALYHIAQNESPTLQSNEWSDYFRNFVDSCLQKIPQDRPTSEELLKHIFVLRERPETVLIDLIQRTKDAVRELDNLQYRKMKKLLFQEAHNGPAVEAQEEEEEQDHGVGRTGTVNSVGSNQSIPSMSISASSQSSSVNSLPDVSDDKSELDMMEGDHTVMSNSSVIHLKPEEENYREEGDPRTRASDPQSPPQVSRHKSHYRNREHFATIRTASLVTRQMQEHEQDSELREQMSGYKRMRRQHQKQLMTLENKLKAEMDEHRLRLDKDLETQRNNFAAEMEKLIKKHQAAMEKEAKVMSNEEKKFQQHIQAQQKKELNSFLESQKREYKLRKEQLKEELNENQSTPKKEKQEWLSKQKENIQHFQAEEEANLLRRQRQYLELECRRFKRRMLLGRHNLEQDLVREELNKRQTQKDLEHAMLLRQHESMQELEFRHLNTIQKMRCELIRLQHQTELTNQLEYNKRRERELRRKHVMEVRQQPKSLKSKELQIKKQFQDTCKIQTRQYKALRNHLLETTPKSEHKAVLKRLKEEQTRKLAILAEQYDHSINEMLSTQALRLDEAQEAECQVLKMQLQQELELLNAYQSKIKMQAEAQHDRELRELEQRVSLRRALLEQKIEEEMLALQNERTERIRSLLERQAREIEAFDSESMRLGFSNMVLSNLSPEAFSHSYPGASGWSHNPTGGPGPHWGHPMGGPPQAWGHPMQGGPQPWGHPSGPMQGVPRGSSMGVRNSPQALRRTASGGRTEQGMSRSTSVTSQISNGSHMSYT

Cc1cc2nc(NCCCO)n(CC(=O)c3cc(C(C)(C)C)c(O)c(C(C)(C)C)c3)c2cc1C
inactive: [1] 81% | [2] 67% | [3] 95% | [4] 100% | [5] 72% | EPHA1 100% | [6] 76% | [7] 47% | PIK3CG 86% | CSK 100% | RIOK2 96% | [8] 100% | BIKE 98% | EPHB3 86% | TTK 100% | [9] 99% | FGR 100% | ERK5 100% | BMPR2 64% | [10] 67% | PRKR 98% | [11] 85% | [12] 92% | ACVR2B 100% | PCTK3 82% | RIPK2 83% | [13] 64% | ULK2 84% | [14] 90% | CAMK4 100% | ARK5 100% | ACVR2A 88% | NEK7 97% | [15] 100% | PIK3CB 79% | NDR2 100%
